A word on the CC50: it is the concentration at which the toxic effect on the cells reaches its halfway point. High values mean better tolerance by the cells, low ones harm at low concentration.

The text below walks through data of patent US20230381142A1, “ANTILEISHMANIAL COMPOUNDS, COMPOSITIONS AND USE THEREOF” (TRUSTEES OF BOSTON UNIVERSITY, priority 2022, published 2023).

Data set [1] is described as follows: Mouse microsomal stability. In kind it is in vitro ADME. Particulars: mouse liver microsomes. As to the method:
Mouse microsomal stability assays were performed as described. Test compound (0.5 μM) was incubated with female CD1 mouse (Xenotech) liver microsomes and their action started with addition of excess NADPH (8 mg/mL 50 mM potassium phosphate buffer, pH 7.4). Aliquots (50 μL) of the incubation mixture were removed immediately (at time 0) and at 3, 6, 9, 15, and 30 min and mixed with acetonitrile (100 μL) to stop the reaction. Internal standard was added to all samples, the samples were centrifuged to sediment precipitated protein, and the plates were then sealed prior to UPLC-MS/MS analysis using a Quattro Premier XE (Waters Corporation, USA). XLfit (IDBS, UK) was used to calculate the exponential decay and consequently the rate constant (k) from the ratio of the peak area of test compound to internal standard at each time point. The rate of intrinsic clearance (Cli) of each test compound was then calculated using the equation Cli (mL/min/g liver)=k×V×microsomal protein yield, where V (mL/mg protein) is the incubation volume/mg protein added and microsomal protein yield is taken as 52.5 mg protein/g liver. Verapamil (0.5 μM) was used as a positive control to confirm acceptable assay performance.

The nature of data set [2]: UCSD infection assay, host cell cytotoxicity (CC50). In kind it is cell-based. The note with it: host macrophages infected with L. donovani; cytotoxicity against host macrophages.
Data set [3] is described as follows: Whole blood stability. In kind it is in vitro ADME. The note with it: criterion: no % reduction over 120 min.

For `COc1ccc(N2C(=O)c3[nH]nc(CC(C)C)c3C2c2ccc(F)cc2)cc1` (racemic) [Compound 1, 4-(4-fluorophenyl)-3-isobutyl-5-(4-methoxyphenyl)-4,5-dihydropyrrolo[3,4-c]pyrazol-6(1H)-one], the half-life at 0.5 μM in data set [1] (female, CD1, pH 7.4, read-out: Microsomal stability (mouse) t1/2) was above 20 min. In data set [1], the “Microsomal stability (mouse) Clint” value is on record as “Clint < 3.4 mL/min/g”. The CC50 at 72 h in data set [2] is above 20 µM. Besides, the Whole blood stability result in data set [3] is “Pass”.
